Reference: ChEMBL document CHEMBL1201862, “PubChem BioAssay data set” (2004)
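Tested at 5 concentrations; 48 h exposure; 96-well plates; endpoints linearly interpolated, else capped at highest concentration. GI50 = concentration required for 50% inhibition of growth.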 Calls of active or inactive are those of the source. Rule as the data show it: active = GI50 up to about 1.1 µM and inactive = higher.

How the values were obtained:
Assay in all cases: DTP human tumour cell line panel, 48 h
A498 = tested on: A498
COLO 205 = tested on: COLO 205
HCT-15 = tested on: HCT-15
HT-29 = tested on: HT-29
K562 = tested on: K562
MOLT-4 = tested on: MOLT-4
Malme-3M = tested on: Malme-3M
NCI-H23 = tested on: NCI-H23
NCI-H522 = tested on: NCI-H522
OVCAR-5 = tested on: OVCAR-5
RPMI-8226 = tested on: RPMI-8226
RXF 393 = tested on: RXF 393
SF-268 = tested on: SF-268
SK-OV-3 = tested on: SK-OV-3
SNB-75 = tested on: SNB-75
SW-620 = tested on: SW-620
UO-31 = tested on: UO-31
A549 = tested on: A549
OVCAR-8 = tested on: OVCAR-8
SK-MEL-2 = tested on: SK-MEL-2

| Structure (SMILES) | GI50 (A498) | GI50 (COLO 205) | GI50 (HCT-15) [µM] | GI50 (HT-29) | GI50 (K562) | GI50 (MOLT-4) | GI50 (Malme-3M) | GI50 (NCI-H23) | GI50 (NCI-H522) | GI50 (OVCAR-5) | GI50 (RPMI-8226) | GI50 (RXF 393) | GI50 (SF-268) | GI50 (SK-OV-3) | GI50 (SNB-75) | GI50 (SW-620) | GI50 (UO-31) | GI50 (A549) | GI50 (OVCAR-8) | GI50 (SK-MEL-2) |
| --- | --- | --- | --- | --- | --- | --- | --- | --- | --- | --- | --- | --- | --- | --- | --- | --- | --- | --- | --- | --- |
| CC1(C)C(=O)c2ccccc2OC1N1CCN(C2Oc3ccccc3C(=O)C2(C)C)CC1 (centres undefined) | 24.5 µM (inactive) | > 100 µM (inactive) | > 100 | > 100 µM (inactive) | > 100 µM (inactive) | > 100 µM (inactive) | 30.3 µM (inactive) | > 100 µM (inactive) | > 100 µM (inactive) | > 100 µM (inactive) | > 100 µM (inactive) | 48.1 µM (inactive) | > 100 µM (inactive) | > 100 µM (inactive) | 28 µM (inactive) | > 100 µM (inactive) | > 100 µM (inactive) |  |  |  |
| CC(C)C1NC(=O)CC(c2ccccc2)N(N=O)C1c1ccccc1 (centres undefined) | > 100 µM (inactive) | > 100 µM (inactive) | > 100 | > 100 µM (inactive) | 71.4 µM (inactive) | > 100 µM (inactive) | > 100 µM (inactive) | > 80.9 µM (inactive) | 37.5 µM (inactive) | > 100 µM (inactive) | 81.8 µM (inactive) | > 100 µM (inactive) | > 100 µM (inactive) | > 61.1 µM (inactive) | > 100 µM (inactive) | > 100 µM (inactive) | > 100 µM (inactive) | > 100 µM (inactive) | > 100 µM (inactive) | > 100 µM (inactive) |
| COc1cc(C2c3cc4c(cc3OC3(O)COC(=O)C23)OCO4)cc(OC)c1OC (centres undefined) | 46.7 µM (inactive) |  | 53.2 | 33.2 µM (inactive) | 42.3 µM (inactive) | 42.6 µM (inactive) | 81.1 µM (inactive) | 34.8 µM (inactive) | 22.7 µM (inactive) | > 100 µM (inactive) | 58.2 µM (inactive) | 31.3 µM (inactive) | 85.3 µM (inactive) | 25.1 µM (inactive) | 25.2 µM (inactive) | 35 µM (inactive) | 34.7 µM (inactive) | 67.5 µM (inactive) | 54 µM (inactive) | > 100 µM (inactive) |
| Cc1cc(Cl)ccc1NC1=NC(=O)C(CC(=O)Nc2cccc(Cl)c2)S1 (centres undefined) | 23.8 µM (inactive) | 72.1 µM (inactive) | 32.1 | 20.5 µM (inactive) | 13.8 µM (inactive) |  | > 100 µM (inactive) | 12.9 µM (inactive) | 26.5 µM (inactive) | 16.1 µM (inactive) |  | 12.1 µM (inactive) | 46.9 µM (inactive) | 42.5 µM (inactive) | 18.7 µM (inactive) | 67 µM (inactive) | 29.7 µM (inactive) | 20.8 µM (inactive) | > 100 µM (inactive) | 37.8 µM (inactive) |
| CCCn1cc2c(O)nc(SC)nc2n1 | 59.6 µM (inactive) | > 100 µM (inactive) | > 100 | > 100 µM (inactive) | > 10 µM (inactive) | > 100 µM (inactive) | > 100 µM (inactive) | > 100 µM (inactive) |  | 79.4 µM (inactive) | > 100 µM (inactive) | > 100 µM (inactive) | 59 µM (inactive) |  | 41.6 µM (inactive) | > 100 µM (inactive) | 72.6 µM (inactive) | > 100 µM (inactive) | > 100 µM (inactive) | > 100 µM (inactive) |
| O=C1C(Cl)=C(c2ccc([N+](=O)[O-])cc2)C(=O)c2c(O)cccc21 | 3.08 µM (inactive) | 1.82 µM (inactive) | 0.614 | 2.72 µM (inactive) | 1.11 µM (active) | 2.56 µM (inactive) | 2.09 µM (inactive) | 1.67 µM (inactive) | 0.292 µM (active) | 2.24 µM (inactive) | 0.379 µM (active) | 0.678 µM (active) | 0.843 µM (active) | 2.87 µM (inactive) | 1.83 µM (inactive) | 1.96 µM (inactive) | 1.92 µM (inactive) | 3.28 µM (inactive) | 1.39 µM (inactive) | 0.713 µM (active) |
| COc1ccc(C2C(Cl)C(=O)N2NC(=O)c2ccccc2O)cc1 (centres undefined) |  | > 100 µM (inactive) |  | > 100 µM (inactive) | > 100 µM (inactive) | > 100 µM (inactive) | > 100 µM (inactive) | > 100 µM (inactive) | > 100 µM (inactive) |  | > 100 µM (inactive) | > 100 µM (inactive) | > 100 µM (inactive) | > 100 µM (inactive) | > 100 µM (inactive) | > 100 µM (inactive) | > 100 µM (inactive) | > 100 µM (inactive) | > 100 µM (inactive) | > 100 µM (inactive) |
| Cc1c2cc[n+](Cc3ccc(I)cc3)cc2c(C)c2c1[nH]c1ccccc12 | 0.697 µM (active) | 0.61 µM (active) | 7.8 | 0.857 µM (active) | 0.643 µM (active) | 0.574 µM (active) | 0.582 µM (active) | 0.65 µM (active) | 0.692 µM (active) | 1.37 µM (inactive) | 0.518 µM (active) | 0.893 µM (active) | 0.495 µM (active) | 3.84 µM (inactive) | 0.0914 µM (active) | 0.912 µM (active) | 3.14 µM (inactive) | 0.849 µM (active) | 0.685 µM (active) | 0.614 µM (active) |
| COC(=O)c1c(O)ccc2c1c1c(n2Cc2cccc(C)c2)C(=O)c2ccccc2C1 | 40.8 µM (inactive) | 12.1 µM (inactive) | 19.7 | 10.3 µM (inactive) | 29.4 µM (inactive) | 17.1 µM (inactive) | 13.5 µM (inactive) | 23.7 µM (inactive) |  | 22 µM (inactive) | 12 µM (inactive) | 11.9 µM (inactive) | 28 µM (inactive) | > 75 µM (inactive) |  | 26.2 µM (inactive) | > 75 µM (inactive) | 25.2 µM (inactive) | 26.2 µM (inactive) | 45 µM (inactive) |
| CC(=O)NNc1nc(C)c(C(=O)NNC(=O)C(=O)Nc2cccc(C(C)=O)c2)s1 | 20.7 µM (inactive) | 53.6 µM (inactive) | 21.2 | 50.2 µM (inactive) | 32.1 µM (inactive) | 45.3 µM (inactive) |  | 17.5 µM (inactive) | 15.2 µM (inactive) | > 100 µM (inactive) | 40.1 µM (inactive) | 16.5 µM (inactive) | 21.5 µM (inactive) | 18.3 µM (inactive) | 17.3 µM (inactive) | 39.5 µM (inactive) | 17.1 µM (inactive) | 34.8 µM (inactive) | 20 µM (inactive) | 36.1 µM (inactive) |
| c1ccc(COC2(OCc3ccccc3)CC3OC2C2NN=NC32)cc1 (centres undefined) | > 100 µM (inactive) | 37.7 µM (inactive) | 26 | 20.8 µM (inactive) | 15.6 µM (inactive) | 12.5 µM (inactive) | 22.4 µM (inactive) | 17.5 µM (inactive) |  | > 100 µM (inactive) | 13.7 µM (inactive) | 41.7 µM (inactive) | 22.1 µM (inactive) | > 100 µM (inactive) | 16.9 µM (inactive) | 12.5 µM (inactive) | 29.7 µM (inactive) | 57.1 µM (inactive) |  | > 10 µM (inactive) |
| c1ccc(/N=C2\S/C(=N\C3CCCCC3)N(C3CCCCC3)\C2=N/c2ccccc2)cc1 | > 100 µM (inactive) | > 100 µM (inactive) | > 100 | > 100 µM (inactive) | > 100 µM (inactive) | 37.8 µM (inactive) | > 100 µM (inactive) | > 100 µM (inactive) | > 100 µM (inactive) | > 100 µM (inactive) | > 100 µM (inactive) | > 100 µM (inactive) |  | > 100 µM (inactive) | > 100 µM (inactive) |  | > 100 µM (inactive) |  | > 100 µM (inactive) | > 100 µM (inactive) |
| Cn1ccnc1C(O)(c1nccn1C)c1nccn1C |  | > 100 µM (inactive) |  | > 100 µM (inactive) |  |  | > 100 µM (inactive) | > 100 µM (inactive) | > 100 µM (inactive) | > 100 µM (inactive) |  | > 100 µM (inactive) | > 100 µM (inactive) |  | > 100 µM (inactive) | > 100 µM (inactive) | > 100 µM (inactive) |  | > 100 µM (inactive) | > 100 µM (inactive) |
| COc1cc(C2(c3ncc[nH]3)SSSCC2O)ccc1O (centres undefined) | 79.3 µM (inactive) | 25.6 µM (inactive) | 33.1 | 38 µM (inactive) | 23.4 µM (inactive) | 16.5 µM (inactive) |  | 60.7 µM (inactive) | 29.4 µM (inactive) | > 100 µM (inactive) | 22.6 µM (inactive) | 30.1 µM (inactive) | 15.8 µM (inactive) | 66.4 µM (inactive) | > 100 µM (inactive) | 33 µM (inactive) | 65.9 µM (inactive) | > 57.4 µM (inactive) | 36.9 µM (inactive) | > 100 µM (inactive) |
| O=C1C2=C(C3=NCCc4c[nH]c1c43)c1c(Br)cc(Br)cc1CCN2 | 11.2 µM (inactive) | 1.29 µM (inactive) | 2.21 | 2.45 µM (inactive) | 2.68 µM (inactive) | 1.35 µM (inactive) |  | 1.79 µM (inactive) | 1.66 µM (inactive) | 4.19 µM (inactive) | 1.24 µM (inactive) | 4.75 µM (inactive) | 2.59 µM (inactive) | 12.2 µM (inactive) | 8.93 µM (inactive) | 2.24 µM (inactive) | 6.22 µM (inactive) | 2.73 µM (inactive) | 2.98 µM (inactive) | 3.33 µM (inactive) |
| CCCCP1(=O)C=CC(Cl)=C(C)C1 (centres undefined) | > 100 µM (inactive) | > 100 µM (inactive) | > 100 | > 100 µM (inactive) | > 100 µM (inactive) | > 100 µM (inactive) | > 100 µM (inactive) | > 100 µM (inactive) | > 100 µM (inactive) | > 100 µM (inactive) |  | > 100 µM (inactive) | > 100 µM (inactive) |  |  | > 100 µM (inactive) | > 100 µM (inactive) | > 100 µM (inactive) | > 100 µM (inactive) | > 100 µM (inactive) |
